In article PMC5053523, “In Vitro Antibacterial Activity of Rhodanine Derivatives against Pathogenic Clinical Isolates” (PLoS ONE, 2016):
Where a name gives a salt, the structure may show the parent alone. Read-outs that look alike come from different tables or passages of the source.

Experiments:
[1] = tested on: vancomycin resistant enterococci (VRE) E. faecalis; experiment: Broth microdilution MIC/MBC, VRE E. faecalis; type: cell-based
[2] = tested on: vancomycin resistant enterococci (VRE) E. faecium; experiment: Broth microdilution MIC/MBC, VRE E. faecium; type: cell-based
[3] = tested on: vancomycin resistant enterococci (VRE); experiment: Broth microdilution MIC50/MIC90, VRE panel; type: cell-based; details: Enterococcus, VRE
[4] = tested on: Vancomycin Resistant Staphylococcus aureus (VRSA); experiment: Broth microdilution MIC/MBC, VRSA; type: cell-based; details: VRSA
B. cereus = experiment: Broth microdilution MIC/MBC, B. cereus; type: cell-based
From the text: The broth microdilution technique was used, followed by subculturing on agar plates that were rhodanine—free.

B. licheniformis = experiment: Broth microdilution MIC/MBC, B. licheniformis; type: cell-based; details: Bacillus licheniformis
Bacillus Strains = experiment: Broth microdilution MIC50/MIC90 and MIC range, Bacillus strains panel; type: cell-based, Bacillus spp.; details: 10 Bacillus strains
From the text: (§1) The broth microdilution technique was used, followed by subculturing on agar plates that were rhodanine—free. […] The MICs reported represent the lowest concentration of each compound necessary to inhibit bacterial growth and the MBCs represent the lowest concentration required to reduce the initial bacterial inoculum by ≥ 99.9%.

Clostridium difficile = experiment: MIC against Clostridium difficile, anaerobic broth dilution; type: cell-based; details: Clostridioides difficile
Method: Clinical isolates of C. difficile were cultured on anaerobic blood agar and incubated anaerobically using container gas pack system at 37° C for 48 hours. The colonies were then suspended in pre-reduced phosphate buffered saline (PBS) and adjusted to 0.5 McFarland standard then diluted 1:300 in pre-reduced Supplemented Brain Heart Infusion broth. The bacterial suspension was then transferred to each well of 96-well plates, the drugs were added to the first row of wells in the required concentrations and serially diluted along the plates. The plates were incubated again anaerobically using container gas pack system at 37° C for 48 hours. The (MIC) recorded was the lowest concentration of the drug showing no visible growth of the bacteria.

Mycobacterium smegmatis = experiment: Broth microdilution MIC/MBC, Mycobacterium smegmatis; type: cell-based; details: Mycolicibacterium smegmatis, ATCC14468
[5] = tested on: established methicillin-resistant S. epidermidis biofilm (ATCC 35984, NRS 101); experiment: Microtiter dish biofilm eradication assay (crystal violet); type: cell-based, Staphylococcus epidermidis; details: high concentrations (up to 8 X MIC), 24 h
Method: We used S. epidermidis ATCC 35984 (NRS 101), a high-slime producer isolated in septicemic patients, with colonized intravascular catheters from Tennessee, USA [10]. This strain is a multi-drug resistant strain, showing resistance to methicillin, erythromycin, kanamycin, gentamicin, clindamycin and trimethoprim. Briefly, an overnight culture of biofilm—producing MRSE was diluted 1:100 in a fresh medium containing 1% glucose in a 96-well tissue-culture treated plate. Bacteria were incubated at 37°C for 24 h to permit the formation of an adherent biofilm. The medium was removed and the biofilm was washed with PBS. Antibacterial drugs (vancomycin and linezolid) and rhodanine 2, at indicated concentration, were added and incubated again at 37°C for 24 h. Plates were washed again and biofilms were stained with 0.1% (wt/vol) crystal violet. Plates were washed with PBS, air-dried and biofilm mass was dissolved using 95% ethanol. The intensity of crystal violet was measured using a micro plate reader (SpectraMax i3x; Molecular Devices, Sunnyvale, CA, USA). Data are presented as the percent biofilm mass reduction in treated groups in relation to untreated wells.

MRSA USA300 = experiment: MIC against MRSA USA300 with and without 4% human serum albumin; type: cell-based, Staphylococcus aureus; details: Staphylococcus aureus, read-out: MIC against MRSA USA300
Method: as §1, with “The minimum inhibitory concentration (MIC) and the minimum bactericidal concentration (MBC) of rhodanine compounds 1 to 7 were determined against various Gram-positive and Gram-negative pathogens (S1 Table) following the guidelines of the Clinical and Laboratory Standards Institute (CLSI)[4]. The broth” for “The broth”
The antimicrobial activity of rhodanine compounds in the presence of 4% human serum albumin (HSA) was tested against MRSA USA300. The MICs of rhodanine compounds and control antibiotics (vancomycin and daptomycin) were tested as described in the methods above using tryptic soy broth spiked with 4% HSA. We also synthesized and tested three more compounds, ethyl ester and amide of rhodanine 2 (Rh 8 and Rh 10, respectively) and ethyl ester of rhodanine 3 (Rh 9) to determine the influence of a carboxyl group modification toward anti-MRSA activity and human serum albumin (HSA) binding.

CN[C@H](CC(C)C)C(=O)N[C@H]1C(=O)N[C@@H](CC(N)=O)C(=O)N[C@H]2C(=O)N[C@H]3C(=O)N[C@H](C(=O)N[C@H](C(=O)O)c4cc(O)cc(O)c4-c4cc3ccc4O)[C@H](O)c3ccc(c(Cl)c3)Oc3cc2cc(c3O[C@@H]2O[C@H](CO)[C@@H](O)[C@H](O)[C@H]2O[C@H]2C[C@](C)(N)[C@H](O)[C@H](C)O2)Oc2ccc(cc2Cl)[C@H]1O [Vancomycin, vancomycin hydrochloride, reference compound]
MIC [1]: > 64 µM
MIC ([1]; E. faecalis ERV103 HM-934): > 64/— μM
MIC ([1]; E. faecalis NR31972 Strain SF 28073): > 64/— μM
MIC ([1]; E. faecalis S613 HM-334): > 64/— μM
MIC ([1]; E. faecalis TX0104 HM-201): > 64/— μM
MIC [2]: > 64 µM
MIC ([2]; E. faecium E417 HM-965): > 64/— μM
MIC ([2]; E. faecium E1071 NR-28978): > 64/— μM
MIC ([2]; E. faecium HM 968 Strain ERV102): > 64/— μM
MIC ([2]; E. faecium NR31914 Strain E0120): > 64/— μM
MIC50 [3]: > 64 µM
MIC90 [3]: > 64 µM
MBC [4]: > 64 µM
MIC50 [4]: > 64 µM
MIC90 [4]: > 64 µM
MIC ([4]; VRSA 1): > 64 µM
MIC ([4]; VRSA 2): > 16 µM
MIC ([4]; VRSA 3a): > 16 µM
MIC ([4]; VRSA 3b): > 16 µM
MIC ([4]; VRSA 4): > 64 µM
MIC ([4]; VRSA 5): 64 µM
MIC ([4]; VRSA 6): > 64 µM
MIC ([4]; VRSA 7): > 64 µM
MIC ([4]; VRSA 8): > 64 µM
MIC ([4]; VRSA 9): > 64 µM
MIC ([4]; VRSA 10): > 64 µM
MIC ([4]; VRSA 11a): > 64 µM
MIC ([4]; VRSA 11b): > 64 µM
MIC ([4]; VRSA 12): > 64 µM
MIC ([4]; VRSA 13): > 64 µM
MBC (B. cereus; B. cereus BAG1O-2 NR-28582): < 0.5/< 0.5 μM
MIC (B. cereus; B. cereus BAG1O-2 NR-28582): < 0.5/< 0.5 μM
MBC (B. cereus; B. cereus BAG1X1-1 NR-28575): < 0.5/< 0.5 μM
MIC (B. cereus; B. cereus BAG1X1-1 NR-28575): < 0.5/< 0.5 μM
MBC (B. cereus; B. cereus G9241 NR-9564): < 0.5/< 0.5 μM
MIC (B. cereus; B. cereus G9241 NR-9564): < 0.5/< 0.5 μM
MBC (B. cereus; B. cereus VD014 NR-22141): < 0.5/< 0.5 μM
MIC (B. cereus; B. cereus VD014 NR-22141): < 0.5/< 0.5 μM
MBC (B. cereus; B. cereus VD115 NR-22148): < 0.5/< 0.5 μM
MIC (B. cereus; B. cereus VD115 NR-22148): < 0.5/< 0.5 μM
MBC (B. cereus; B. cereus VD148 NR-22150): < 0.5/< 0.5 μM
MIC (B. cereus; B. cereus VD148 NR-22150): < 0.5/< 0.5 μM
MBC (B. cereus; Bacillus cereus, B. cereus BAG1X2-1 NR-28578, read-out: MBC): < 0.5 µM
MIC (B. cereus; Bacillus cereus, B. cereus BAG1X2-1 NR-28578, read-out: MIC): < 0.5 µM
MBC (B. cereus; Bacillus cereus, NRS201, B. cereus NRS 201 NR-2488, read-out: MBC): < 0.5 µM
MIC (B. cereus; Bacillus cereus, NRS201, B. cereus NRS 201 NR-2488, read-out: MIC): < 0.5 µM
MBC (B. licheniformis; NCIB9375): 2 µM
MIC (B. licheniformis; NCIB9375): < 0.5 µM
MBC (B. licheniformis; NRS712): < 0.5 µM
MIC (B. licheniformis; NRS712): < 0.5 µM
MIC50 (Bacillus Strains): < 0.5 µM
MIC90 (Bacillus Strains): < 0.5 µM
MIC (Clostridium difficile; C. difficile HM-88): 0.5 µM
MIC (Clostridium difficile; C. difficile HM-745): 0.125 µM
MIC (Clostridium difficile; C. difficile HM-746): 0.25 µM
MIC (Clostridium difficile; C. difficile Isolate-1 NR-13427): 1 µM
MIC (Clostridium difficile; C. difficile Toxigenic Strain P8 NR-32888): 0.5 µM
MBC (Mycobacterium smegmatis): 16 µM
MIC (Mycobacterium smegmatis): 2 µM
biofilm mass reduction [5]: not significantly decreased
MIC (MRSA USA300): 0.5 µM
